Data set [1] has as its system type II diabetic mice (C57BUKs-Lepr db/db). The experiment in a line: In vivo bioactivity in type II diabetic mice. The arrangement: species or system mouse. To be noted: 5 μg peptide s.c. twice a day, Day 2, 4, 7, 10, overnight fasted. The method, then:
11-week-old type II diabetic mice (C57BUKs-Lepr^db/db, Harlan) were treated with 5 μg peptide by subcutaneous injection twice a day at 9 a.m. and 5 p.m. (n=5 per group).
Blood glucose was measured before (day 0) and after treatment with GLP^CM peptides (Day 2, 4, 7, 10) at 10 a.m. after an overnight fastening period. Data were presented in relation to blood glucose levels measured at day 0.
Best results were obtained with recombinant SEQ ID No.:6 (CM1) and synthetic SEQ ID No.:8 (CM3). In FIG. 5 (y-axis) the relative effect of the treatment is shown. Blood glucose at day=0 was set to 1. Untreated animals undergo continuous increase in blood glucose level over time, whereas animals treated with inventive peptides display grosso modo a continuous decrease of the blood glucose level over time.

Data set [2] can be described thus: In vitro human plasma stability of GLP-1 CM peptides. As to conditions: 20 ng/ml peptide, 37° C., 3 hours, GLP-1 (Active) ELISA, versus native GLP-1(7-37).
Description: Dipeptidylpeptidase activity of the plasma was inhibited by an DPP-IV inhibitor (#DPP4, Biotrend).
Data set [3] concerns diabetic C57BL/KsJ@Rj-db (db/db) mice. The experiment in a line: Dose-efficacy study in diabetic mice. Format: in vivo, mouse. To be noted: for fall in plasma glucose @1 h: 1 hour after single s.c. injection of 1.1-3.0 nmol peptide; for fall in plasma glucose @1 h / fall in plasma glucose @4 h: versus control; for fall in plasma glucose @4 h: 4 hours after single s.c. injection of 1.1-3.0 nmol peptide; for plasma glucose ED50: single s.c. dose, percentage decrease of blood glucose at 1h. The method, then:
A sixth group was treated with saline only. 7 animals were treated per group. Blood glucose was determined from tail bleeds directly before, 1 hour and 4 hours after injection.
The results are shown in dose-response curves according to FIG. 8 (FIG. 8A (GLP-1), FIG. 8B (CM1), FIG. 8C(CM3) and FIG. 8D (CM3-ANA01)). For every test substance a graph was prepared with the percentage difference of the blood glucose in relation to the start value for the different concentrations. […] Both models are sigmoidal fit models suitable for dose response evaluation. For every peptide the plasma glucose ED50 values (single s.c. dose in μg/mouse) have been determined from the percentage decrease of blood glucose.
The fall in plasma glucose and the corresponding significance levels are given for the time period 1 hour (@1 h) and 4 hours (@4h) after peptide injection. Differences have been observed in the long-term efficacy of the peptides.

Another data set concerns BALB/c mice. The experiment in a line: Immunogenicity study in BALB/c mice.
In data set [4] the test system is C57BL/KsJ@Rj-db (db/db) mice. The data set can be described thus: Long-term treatment of db/db mice. As to conditions: for non fasted blood glucose level 1h after s.c. peptide injection, compared to control: tail bleed 1 hour after injection; for fasted blood glucose level 18h after peptide injection: 12-hour overnight fast, 18 hours after s.c. injection; for food consumption: weekly, 122 day treatment period, compared to the control. Format: in vivo, mouse. The text has this: The regimen was continued for 18 weeks. From week 12 to 18 treatment was done twice a day in 6 of 12 animals per group. Various parameters of the mice were investigated, i.e. health status (1), body weight (2), food consumption (3), blood glucose (4), glucose tolerance test (5), insulin data (6), glycosylated hemoglobin (7), pathology (8), and restimulation of T cells (9). • Health status (1) was good in all groups, no side effects of the treatment have been seen. • Body weight (2) was lower in all treated groups after 18 weeks of treatment (FIG. 9). […] The relative body weight increase of 12 animals per group after a treatment of 122 days is plotted. […] Non-fasted blood glucose level (1 hour after peptide injection) is shown in FIG. 11A, i.e. the effect of a treatment with saline (A), CM1 (B), CM3-ANA01 (C) or exendin (D) on the non-fasted blood glucose levels. Blood glucose was measured from a tail bleed 1 hour after s.c. injection of saline (A) or the peptides CM1 (B), CM3-ANA01 (C) or exendin (D) in a concentration of 24 nmol/kg. Compared to control non fasted blood glucose level 1h after s.c. peptide injection is reduced to 55% in group B, 51% in group C and 60% in group D (FIG. 11B). The blood glucose decrease in the treated groups treated groups is highly significant (p<0.0001). Fasted blood glucose level (18 hours after peptide injection) are shown in FIG. 11C, i.e. the effect of a treatment with saline (A), CM1 (B), CM3-ANA01 (C) or exendin (D) on the fasted blood glucose levels. Blood glucose was measured from a tail bleed after a 12-hour overnight fast 18 hours after s.c. injection of the test substances. Fasted blood glucose level 18h after peptide injection is reduced in the CM1 and CM3-ANA01 group. • An i.p. glucose tolerance test (5) (IPGTT) was conducted after 8 weeks of treatment on mice of the groups A-D. […] Blood glucose has been further on determined 15, 30, 45, 60, 90 and 120 minutes after glucose injection. A significant normalization of glucose tolerance was shown in all treated groups (FIG. 12A). In FIG. 12A absolute blood glucose levels during an i.p. glucose tolerance test (IPGTT) after 8 weeks of treatment with saline (A), CM1 (B), CM3-ANA01 (C) or exendin (D) is shown (mean values of each group (n=12)). • Another presentation of the data presented by FIG. 12A of the blood glucose tolerance test is given in FIG. 12B. Relative blood glucose levels during an i.p. glucose tolerance test (IPGTT) after 8 weeks of treatment with saline (A), CM1 (B), CM3-ANA01 (C) or exendin (D) normalized on the starting blood glucose level (100%). • Insulin levels (6) were determined from mice after a 12 hour overnight fastening period. […] Directly after sampling blood samples have been treated with a protease inhibitor cocktail to avoid insulin degradation. The serum was analysed for insulin with the Insulin Mouse Ultrasensitive ELISA (Cat.# EIA-3440, DRG). Significance has been determine with Student's t-test. • Glycosylated hemoglobin (7) is formed by excess plasma glucose binding to hemoglobin in red blood cells (RBC). Since RBCs have a 120-day lifespan, measurements of the glycolylated hemoglobin gives a longer-term indication of glucose control and is seen as a better indicator than plasma glucose levels. Whole blood was collected from the retro-orbital sinus and analyzed with the Enzymatic HbA1c Test Kit (#DZ121A, Diazyme) to determine the glycosylated hemoglobin levels. […] The mean value of all animals per group (n=12) is given. […] Therefore, the spleen of 8 animals per group was explanted, T-cells isolated and restimulated with different concentrations of the corresponding test substance. Compared to non-treated controls no significant increase in peptide restimulated T-cell proliferation was found. […] The stimulation index (SI) was calculated as the quotient of the response in the presence of the respective peptide and the response in the absence of peptides. […]

A short description of data set [5]: In vitro plasma stability, kinetic test method. As to conditions: 1 μM peptide, 10% human plasma, 37° C., 0-9 hours.
Description: (§1) Results are from triplicates in at least two independent experiments.
The conditions of data set [6]: human, 1 μM, pH 7.8.
Description: as §1
[7] abbreviates: 5 repeated injections, 70 μg peptide/dose, i.v., over 22d, BALB/c mice.

Where no end group is shown, it is not given here.

Protocol for BALB/c mice: The trial was done in BALB/c mice receiving 5 repeated injections (70 μg peptide/dose, i.v.) over 22d (n=5).
Spleens of the treated and control mice were explanted, T-cells isolated and stimulated with increasing amounts of antigene. Proliferative recall response is measured.

GLP-1 (7-37)-IP2-RR-GLP1(7-37) [CM1]: the “anti-hyperglycemia effect (blood glucose in relation to day 0)” value in data set [1] (listed as SEQ ID No.:6) was “anti-hyperglycemia effect”. The “anti-hyperglycemia effect (blood glucose in relation to day 0)” value in data set [1] (listed as recombinant SEQ ID No.:6) is “Best results”. For the same substance, the “stability in human plasma in vitro (active GLP)” value in data set [2] is reported as “significantly stabilized”. Moreover, in data set [3], the “fall in plasma glucose @1 h” value is recorded as 50% ± 14% @1 h, the “fall in plasma glucose @4 h” value came out at 0% @4 h and the “plasma glucose ED50” value was determined as 0.61 μg/mouse. In the data set on BALB/c mice (setting [7]), the “T-cell antibody response and antibody titer” value is “minimal”; the toxicity entry is listed as “no toxicity”. For the same substance, the clinically relevant immunogenicity in the data set on BALB/c mice (immunogenicity study in mice) is “absence of any clinically relevant immunogenicity”. For the same substance, in data set [4] (24 nmol/kg s.c.), the “non fasted blood glucose level 1h after s.c. peptide injection, compared to control” value came out at 55%. The “fasted blood glucose level 18h after peptide injection” value in data set [4] is “reduced”. The food consumption entry in data set [4] (p<0.001) is reported as “significantly lower”.
For the substance “HAEGTFTSDVSSYLEGQAAKEFIAWLVKGRGAADFPEEVAIAEELG [CM3-ANA01]”, the “in vitro plasma stability, comparison in words” value in data set [5] is “higher plasma stability than CM3”. Also, in data set [6], the “active GLP-1 left after 9h plasma exposure, % of the 0 h value” came to 84%. Also, in data set [3], the “fall in plasma glucose @1 h” value was 62% ± 12% @1 h, the “fall in plasma glucose @4 h” value is recorded as 18% ± 11% @4 h and the “plasma glucose ED50” value worked out at 0.55 μg/mouse. In data set [4] (24 nmol/kg s.c.), the “non fasted blood glucose level 1h after s.c. peptide injection, compared to control” value is 51%. In addition, in data set [4], the “fasted blood glucose level 18h after peptide injection” value is given as “reduced”. In data set [4] (after a treatment of 122 days, 24 nmol/kg s.c., p<0.001), the “relative body weight increase” value is “significantly lower”. Moreover, the food consumption entry in data set [4] (p<0.001) is listed as “significantly lower”.
As to “HAEGTFTSDVSSYLEGQAAKEFIAWLVKGRGRRDFPEEVAIAEELG [CM3, GLP-1(7-37)-IP2]”, the “stability in human plasma in vitro (active GLP)” value in data set [2] was “significantly stabilized”.

The values above are taken from US20100256332A1, “GLP-1 Fusion Peptides, Their Production and Use” (BIOCOMPATIBLES UK LTD, priority 2007, published 2010).
